SMILES strings stand for the structures.

Here are results for seven compounds from patent US4456752A, “Process for the preparation of 9-hydrazono-6,7,8,9-tetrahydro-4H-pyro[1,2-a]pyrimidine-4-one compounds, the salts and hydrates thereof” (Chinoin Gyogyszer es Vegyeszeti Termekek Gyara R.T., priority 1979, dated 1984).

The test system of assay [1] is allergic reactions induced by the antigen-antibody interaction. The assay is described as follows: PCA test (Ovary), antiallergic activity on rats. The conditions noted are these: for ED50: Rattus norvegicus, iv, rats. Type of assay: in vivo. The method, then: The test is carried out by the PCA test-method (Ovary: J. Immun. 81, 355, 1958) and the Church-test (British J. Pharm. 46, 56-66, 1972; Immunology 29, 527-534, 1975) and as a reference substance disodium chromoglycate is used. The test was carried out on rats.

A further assay deals with allergic symptoms. Particulars: oral / inhaler; background statement; cited from earlier work.

The term ED50 denotes the midpoint of the dose-response relation. High values mean weaker potency, low ones greater potency. In the case of `CCOc1ccc(NN=C2CCC(C)n3c2ncc(C(=O)O)c3=O)cc1` (racemic) [(±)-9-(4-ethoxyphenyl-hydrazono)-6-methyl-4-oxo-6,7,8,9-tetrahydro-4H--pyrido[1,2-a]pyrimidine-3-carboxylic acid], in assay [1], the 50% effect level (ED50) was put at a dose of 0.87 µmol/kg. As for `O=C(O)c1cc(=O)c2c(OCC(O)COc3cccc4oc(C(=O)O)cc(=O)c34)cccc2o1` [Disodium chromoglycate, 1,3-bis-(2-carboxychromon-6-yl-ox)-2-hydroxypropane, reference compound], the “oral activity (PCA test data, in words)” value in assay [1] (oral versus i.v.) is on record as “effective only when administered intravenously”. Further, in the assay with allergic symptoms, the “effectiveness by route (antiasthmatic agent, in words)” value was “not effective orally and it produces the desired effect only by using an inhaler”. `CC1CCC(=NNc2cccc([N+](=O)[O-])c2)c2ncc(C(=O)O)c(=O)n21` (centres unmarked) [6-methyl-9-(3-nitrophenyl-hydrazono-4-oxo-6,7,8,9-tetrahydro-4H--pyrido[1,2-a]-pyrimidine-3-carboxylic acid] came in with an ED50 in assay [1] of 0.52 µmol/kg. Same read-out and setting: the figure for `CC1CCC(=NNc2ccc(Br)cc2)c2ncc(C(=O)O)c(=O)n21` (centres unmarked) [9-(4-bromophenylhydrazono)-6-methyl-4-oxo-6,7,8,9-tetrahydro-4H--pyrido[1,2-a]-pyrimidine-3-carboxylic acid] is 0.82 µmol/kg; for `Cc1cccc(NN=C2CCC(C)n3c2ncc(C(=O)O)c3=O)c1` (centres unmarked) [6-methyl-9-(3-methylphenyl-hydrazono)-4-oxo-6,7,8,9-tetrahydro-4H--pyrido[1,2-a]-pyrimidine-3-carboxylic acid] it is 0.42 µmol/kg.

`CC1CCC(=NNc2ccc(C(=O)O)cc2)c2ncc(C(=O)O)c(=O)n21` (centres unmarked) [9-(4-carboxyphenyl-hydrazono)-6-methyl-4-oxo-6,7,8,9-tetrahydro-4H--pyrido[1,2-a]pyrimidine-3-carboxylic acid]: it took a dose of 7.6 µmol/kg to reach the 50% effect level in assay [1] (ED50). `CC1CCC(=NNc2cccc(Cl)c2)c2ncc(C(=O)O)c(=O)n21` (centres unmarked) [9-(3-chlorophenylhydrazono)-6-methyl-4-oxo-6,7,8,9-tetrahydro-4H--pyrido[1,2-a]-pyrimidine-3-carboxylic acid] yielded an ED50 in assay [1] of 0.61 µmol/kg.
